Experimental data from US4462992A, “Nitroimidazole radiosensitizers for hypoxic tumor cells and compositions thereof” (priority 1982, dated 1984).
Like-named read-outs stand apart in the source and are kept apart here.

Key:
[1] = test system: hypoxic tumor cells; details: cited from earlier work
[2] = test system: central nervous system; details: cited from earlier work
[3] = test system: Chinese hamster cells line V-79; assay: Radiosensitization (enhancement ratio, cobalt-60 irradiation of hypoxic cells); assay type: cell-based
Description: (§1) Asynchronous monolayers of cultures of Chinese hamster cells line V-79 were employed in all experiments. The monolayers were derived from exponentially growing cultures. Methods of culturing and handling have been reported earlier by Cooke et al, Rad. Res. 65, 152 (1976). The plated cultures were rendered hypoxic in sealed dural containers capable of holding seven petri dishes, by purging with nitrogen (oxygen-free grade) for one hour. Irradiation was carried out by using a cobalt-60 source at a dose rate of approximately 240 rad/min according to the procedure described by Agrawal et al Rad. Res. 78:532 (1979). A dose of 1400 rad was given to hypoxic cells in glass petri dishes in the presence of a given drug concentration (2000 cells/dish). Cell survival was estimated from unirradiated toxic hypoxic cells exposed to the same drug concentration. Complete survival curves were obtained for each compound at the radiation doses of 400 to 3000 rad. The Do value was calculated for each compound and the ratio of the Do value for the hypoxic control cells to the Do value of the hypoxic drug treated cells provided the sensitized enhancement ratio of the corresponding agent.
(§2) Cultures were incubated for 6 days at 37° C. in an atmosphere of 5% CO2. The resulting colonies were fixed in absolute ethanol and stained with methylene blue and counted.

[4] = test system: hypoxic cells (Chinese hamster cells line V-79); assay: Differential toxicity to hypoxic cells at 4 hours; assay type: cell-based
Description: as §1
(§3) To determine toxicity in vitro, glass petri dishes containing approximately 200 Chinese hamster cells/dish were exposed to a range of concentrations of each drug for 2 hours and/or 4 hours at 37° C. Drug concentrations between 10 μM and 0.5 mM were employed initially.

[5] = In vitro cytotoxicity in oxic cells (% survival); assay type: cell-based, Chinese hamster; details: hamster, v-79 cells, oxic; for viability at 2 h, 100 µM / viability at 4 h, 100 µM: 0.1 mM
Description: as §1, §2, §3

[6] = test system: Chinese hamster cells line V-79 (oxic); assay: In vitro cytotoxicity in oxic cells (% survival); assay type: cell-based; details: 4 hours, 240 min
Description: as §1, §2, §3

[7] = In vitro cytotoxicity in hypoxic cells (% survival); assay type: cell-based, Chinese hamster; details: hamster, v-79 cells; for viability at 2 h, 100 µM / viability at 4 h, 100 µM: 0.1 mM; for viability at 2 h, 500 µM / viability at 4 h, 500 µM: 0.5 mM
Description: as §1, §2, §3

[8] = in vivo; details: mouse, ip
Description: Neurotoxicity in mice was determined using mice of strain CDF1. This was carried out by (1) determining the LD50 of each compound in mice and (2) observing the animals for acute neurotoxic symptoms such as convulsions. The drugs were either solubilized or suspended in normal saline and administered intraperitoneally to groups of ten mice. […]

[9] = 2 hours, read-out: In vitro cytoxicity in oxic cells (% survival at 2 hours)
[10] = 2 hours, 0.5 mM, read-out: In vitro cytoxicity in oxic cells (% survival at 2 hours)
[11] = 4 hours, read-out: In vitro cytoxicity in oxic cells (% survival at 4 hours)
[12] = 2 hours, read-out: In vitro cytoxicity in hypoxic cells (% survival at 2 hours)
[13] = 4 hours, read-out: In vitro cytoxicity in hypoxic cells (% survival at 4 hours)

Row | SMILES | effectiveness in vivo [1] | Differential toxicity to hypoxic cells at 4 hours [4] | Radiosensitization (enhancement ratio in Chinese hamster cells) ([3]; 0.5 mM) | viability at 2 h, 100 µM [5, 9] | viability at 2 h, 500 µM [5, 10] | viability at 4 h, 100 µM [5, 11] | viability at 2 h, 100 µM [7, 12] | viability at 2 h, 500 µM [7, 12] | viability at 4 h, 100 µM [7, 13] | viability at 4 h, 500 µM [7, 13] | further results
1 | Cc1ncc([N+](=O)[O-])n1CCO [O, Metronidazole] | effective in vivo | Yes | – | – | – | – | – | – | – | – | radiosensitization activity ([1]; in vivo and in vitro): active both in vivo and in vitro; side effects in mice ([2]; in vivo, po): peripheral neuropathy and convulsions in mice; central nervous system toxicity ([2]; in vivo): central nervous system toxicity is a limiting factor for their use in humans; Radiosensitization (enhancement ratio in Chinese hamster cells) ([3]; 1.0 mM): 1.5
2 | CC(=O)OC[C@H]1O[C@@H](n2ccnc2[N+](=O)[O-])C=C[C@@H]1OC(C)=O [C, 1(4',6di-O--acetyl2',3didehydro-2',3dideoxy-D-erythro-hexopyranosyl)-2-ni roimidazole] | – | Yes | 1.6 | 95% | 97% | 101% | 104% | 92.6% | 86.6% | 41.1% | viability at 2 h, 10 µM ([5]; 2 hours, 0.01 mM, read-out: In vitro cytoxicity in oxic cells (% survival at 2 hours)): 101%; viability at 2 h, 50 µM ([5]; 2 hours, 0.05 mM, read-out: In vitro cytoxicity in oxic cells (% survival at 2 hours)): 100%; viability at 4 h, 500 µM ([5]; 4 hours, 0.5 mM, read-out: In vitro cytoxicity in oxic cells (% survival at 4 hours)): 103%; In vitro cytoxicity in oxic cells (% survival at 4 hours) ([6]; 0.1 mM, 100 µM): 94%; In vitro cytoxicity in oxic cells (% survival at 4 hours) ([6]; 0.5 mM, 500 µM): 88%
3 | COCC(O)Cn1ccnc1[N+](=O)[O-] (stereo not drawn) [N, Misonidazole] | effective in vivo | Yes | – | – | – | – | – | – | – | – | side effects in mice ([2]; administered orally): peripheral neuropathy and convulsions in mice; central nervous system toxicity ([2]; use in humans): central nervous system toxicity is a limiting factor for their use in humans
4 | O=[N+]([O-])c1nccn1[C@@H]1C=C[C@H](O)[C@@H](CO)O1 [A, 1(2',3didehydro-2',3dideoxy-D-erythro-hexopyranonyl)-2-nitroimidazole] | – | Yes | 2.2 | 99% | 90% | 99% | 97.3% | 75.9% | 56.7% | 15.8% | Radiosensitization (enhancement ratio in Chinese hamster cells) ([3]; 0.25 mM): 2.0; viability at 2 h, 250 µM ([5]; 2 hours, 0.25 mM, read-out: In vitro cytoxicity in oxic cells (% survival at 2 hours)): 104%; viability at 2 h, 1000 µM ([5]; 2 hours, 1.0 mM, read-out: In vitro cytoxicity in oxic cells (% survival at 2 hours)): 82.4%; viability at 4 h, 250 µM ([5]; 4 hours, 0.25 mM, read-out: In vitro cytoxicity in oxic cells (% survival at 4 hours)): 104%; viability at 2 h, 250 µM ([7]; 2 hours, 0.25 mM, read-out: In vitro cytoxicity in hypoxic cells (% survival at 2 hours)): 92%; viability at 2 h, 1000 µM ([7]; 2 hours, 1.0 mM, read-out: In vitro cytoxicity in hypoxic cells (% survival at 2 hours)): 59.6%; viability at 4 h, 250 µM ([7]; 4 hours, 0.25 mM, read-out: In vitro cytoxicity in hypoxic cells (% survival at 4 hours)): 26.7%; viability at 4 h, 1000 µM ([7]; 4 hours, 1.0 mM, read-out: In vitro cytoxicity in hypoxic cells (% survival at 4 hours)): 0%; LD50 at 24 h [8]: 3300 mg/kg
